In the assay the target is ASGPR (Homo sapiens (Human), UniProt P07306). Put plainly: Affinity to ASGPR measured by surface plasmon resonance (SPR). In kind it is binding.
Where [1] appears, read: ASGPR ligands, Table 4, class symbols, read-out: ASGPR_PR Binding KD.
[2] abbreviates: ASGPR ligands, Table 4, numeric lower bounds, read-out: ASGPR_PR Binding KD.
[3] abbreviates: ASGPR ligands, Table 2, Biacore 8K, 25° C., steady state fit, read-out: SPR Binding External Calculation: KD.
The mark [4] stands for this setting: ASGPR ligands with linker, Table 5, read-out: ASGPR_SPR Binding KD.

Like-named read-outs stand apart in the source and are kept apart here.

ASGPR, sequence (P07306 whole entry): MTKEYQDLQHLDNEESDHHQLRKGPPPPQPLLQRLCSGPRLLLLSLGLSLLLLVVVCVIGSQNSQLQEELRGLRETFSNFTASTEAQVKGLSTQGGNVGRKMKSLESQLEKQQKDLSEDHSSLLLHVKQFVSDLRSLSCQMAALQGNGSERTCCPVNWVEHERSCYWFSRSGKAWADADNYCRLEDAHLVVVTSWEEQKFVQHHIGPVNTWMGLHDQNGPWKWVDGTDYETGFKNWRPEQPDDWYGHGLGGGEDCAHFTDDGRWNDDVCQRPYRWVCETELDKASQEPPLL

As to `OC[C@H]1OC[C@H](Nc2nc(Cl)nn3cccc23)[C@@H](O)[C@H]1O` [Compound A304], the Kd (commonly the concentration at which binding is half-saturated) under setting [1] is less than 100 µM.
With `CN(C)[C@@H]1CO[C@H](CO)[C@H](O)[C@@H]1O` [Compound A393, (2R,3R,4R,5R)-5-(dimethylamino)-2-(hydroxymethyl)tetrahydro-2H-pyran-3,4-diol], the Kd under setting [1] was 100 to 500 µM.
For the compound `NC(=O)C[C@@H]1CO[C@H](CO)[C@H](O)[C@@H]1O` [Compound A399, 2-((3R,4R,5R,6R)-4,5-dihydroxy-6-(hydroxymethyl)tetrahydro-2H-pyran-3-yl)acetamide], the Kd under setting [2] was greater than 200 µM.
For the compound `CSc1cc(N[C@H]2CO[C@H](CO)[C@H](O)[C@@H]2O)nc(C(N)=O)n1` [Compound A352, 4-(((3S,4R,5R,6R)-4,5-dihydroxy-6-(hydroxymethyl)tetrahydro-2H-pyran-3-yl)amino)-6-(methylthio)pyrimidine-2-carboxamide], the Kd under setting [2] was greater than 20 µM.
Regarding `OC[C@H]1OC[C@H](Nc2cc(Cl)c(Cl)cn2)[C@@H](O)[C@H]1O` [Compound A298], the Kd under setting [1] is less than 100 µM.
For the compound `OC[C@@]12CO[C@@H](O1)[C@H](Nc1ncns1)[C@@H](O)[C@H]2O` [Compound A290], under setting [1], the Kd was less than 100 µM.
In the case of `O=c1ccn([C@H]2CO[C@H](CO)[C@H](O)[C@@H]2O)cc1` [Compound A345, 1-((3S,4R,5R,6R)-4,5-dihydroxy-6-(hydroxymethyl)tetrahydro-2H-pyran-3-yl)pyridin-4(1H)-one], under setting [1], the dissociation constant (Kd) is less than 100 µM.
In the case of `CO[C@H]1O[C@H](CO)[C@H](O)[C@H](O)[C@H]1Nc1nccc(C(F)(F)F)n1` [Compound A377], the Kd under setting [1] is less than 100 µM.
Take `CO[C@H]1O[C@H](CO)[C@H](O)[C@H](O)[C@H]1Nc1nc(Cl)ns1` [Compound A105, (2R,3R,4R,5R,6S)-5-((3-chloro-1,2,4-thiadiazol-5-yl)amino)-2-(hydroxymethyl)-6-methoxytetrahydro-2H-pyran-3,4-diol]: the Kd under setting [3] is less than 100 µM.
Regarding `N[C@@H]1CO[C@H](CO)[C@H](O)[C@@H]1O` [Compound A128, (2R,3R,4R,5R)-5-amino-2-(hydroxymethyl)tetrahydro-2H-pyran-3,4-diol], under setting [3], the Kd was greater than 1000 µM.
Turning to `CNC(=O)[C@@H]1CO[C@H](CO)[C@H](O)[C@@H]1O` [Compound A400, (3R,4R,5R,6R)-4,5-dihydroxy-6-(hydroxymethyl)-N-methyltetrahydro-2H-pyran-3-carboxamide], the Kd under setting [2] is greater than 200 µM.
For the compound `OC[C@H]1OC[C@H](Nc2cc(C(F)(F)F)ncn2)[C@@H](O)[C@H]1O` [Compound A310], the Kd under setting [2] was greater than 20 µM.
For `CCOc1cc(Cl)nc(N[C@H]2CO[C@H](CO)[C@H](O)[C@@H]2O)n1` [Compound A367, (2R,3R,4R,5S)-5-((4-chloro-6-ethoxypyrimidin-2-yl)amino)-2-(hydroxymethyl)tetrahydro-2H-pyran-3,4-diol], under setting [1], the Kd is less than 100 µM.
`COc1nc(C#N)nc(N[C@H]2CO[C@H](CO)[C@H](O)[C@@H]2O)n1` [Compound A349, 4-(((3S,4R,5R,6R)-4,5-dihydroxy-6-(hydroxymethyl)tetrahydro-2H-pyran-3-yl)amino)-6-methoxy-1,3,5-triazine-2-carbonitrile]: the Kd under setting [1] is less than 100 µM.
As to `C[C@@H]1[C@H](Oc2ccccc2)O[C@H](CO)[C@H](O)[C@@H]1O` [Compound A191, (2R,3R,4R,5S,6S)-2-(hydroxymethyl)-5-methyl-6-phenoxytetrahydro-2H-pyran-3,4-diol], the Kd under setting [3] was greater than 1000 µM.
Consider `OC[C@H]1OC[C@H](Nc2nccc(Cl)c2C(F)(F)F)[C@@H](O)[C@H]1O` [Compound A307], for which the dissociation constant (Kd) under setting [1] was less than 100 µM.
Take `CS(=O)(=O)c1ccnc(N[C@H]2CO[C@H](CO)[C@H](O)[C@@H]2O)n1` [Compound A371, (2R,3R,4R,5S)-2-(hydroxymethyl)-5-((4-(methylsulfonyl)pyrimidin-2-yl)amino)tetrahydro-2H-pyran-3,4-diol]: the Kd under setting [1] is less than 100 µM.
Take `OC[C@H]1OC[C@H](Nc2cc(Cl)nc(C(F)(F)F)n2)[C@@H](O)[C@H]1O` [Compound A328]: under setting [2], the Kd is greater than 20 µM.
As for `OC[C@H]1OC[C@H](Nc2cc(C(F)(F)F)cnn2)[C@@H](O)[C@H]1O` [Compound A308], the Kd under setting [2] was greater than 20 µM.
Consider `OC[C@H]1OC[C@H](Nc2ncc(Cl)cc2F)[C@@H](O)[C@H]1O` [Compound A100], for which the Kd under setting [3] is less than 100 µM.
`OC[C@H]1OC[C@@H](CN2CCCCC2)[C@@H](O)[C@H]1O` [Compound A213, (2R,3R,4R,5R)-2-(hydroxymethyl)-5-(piperidin-1-ylmethyl)tetrahydro-2H-pyran-3,4-diol]: the Kd under setting [1] fell in the range of 100 to 500 µM.
Consider `CO[C@@H]1O[C@H](CO)[C@H](O)[C@H](O)[C@H]1Nc1nc(C#N)cs1` [Compound A386], for which the Kd under setting [2] is greater than 20 µM.
Regarding `OC[C@H]1OC[C@H](Nc2nc(C(F)(F)F)ns2)[C@@H](O)[C@H]1O` [Compound A300], under setting [1], the Kd is less than 100 µM.
As for `OC[C@H]1OC[C@H](Nc2ncc(-c3ccccc3)cn2)[C@@H](O)[C@H]1O` [Compound A311], under setting [2], the Kd is greater than 20 µM.
On to `NC[C@@H]1CO[C@H](CO)[C@H](O)[C@@H]1O` [Compound A425, (2R,3R,4R,5R)-5-(aminomethyl)-2-(hydroxymethyl)tetrahydro-2H-pyran-3,4-diol], for which, under setting [1], the Kd was greater than 1000 µM.
`OC[C@H]1OC[C@H](Nc2nc(N3CCOCC3)ns2)[C@@H](O)[C@H]1O` [Compound A340, (2R,3R,4R,5S)-2-(hydroxymethyl)-5-((3-morpholino-1,2,4-thiadiazol-5-yl)amino)tetrahydro-2H-pyran-3,4-diol]: the Kd under setting [1] was less than 100 µM.
Take `COc1cc(C#N)nc(N[C@H]2CO[C@H](CO)[C@H](O)[C@@H]2O)n1` [Compound A346, 2-(((3S,4R,5R,6R)-4,5-dihydroxy-6-(hydroxymethyl)tetrahydro-2H-pyran-3-yl)amino)-6-methoxypyrimidine-4-carbonitrile]: under setting [1], the Kd was less than 100 µM.
For the compound `CCOc1cc(C#N)nc(N[C@H]2CO[C@H](CO)[C@H](O)[C@@H]2O)n1` [Compound A368, 2-(((3S,4R,5R,6R)-4,5-dihydroxy-6-(hydroxymethyl)tetrahydro-2H-pyran-3-yl)amino)-6-ethoxypyrimidine-4-carbonitrile], under setting [2], the Kd is greater than 20 µM.
`OC[C@H]1OC[C@@H](Nc2nc(Cl)ns2)[C@@H](O)[C@H]1O` [Compound A146, (2R,3R,4R,5R)-5-((3-chloro-1,2,4-thiadiazol-5-yl)amino)-2-(hydroxymethyl)tetrahydro-2H-pyran-3,4-diol]: the Kd under setting [1] was less than 100 µM.
Turning to `N#Cc1cc(N[C@H]2CO[C@H](CO)[C@H](O)[C@@H]2O)nc(C#N)n1` [Compound A348, 6-(((3S,4R,5R,6R)-4,5-dihydroxy-6-(hydroxymethyl)tetrahydro-2H-pyran-3-yl)amino)pyrimidine-2,4-dicarbonitrile], under setting [2], the Kd was greater than 20 µM.
Turning to `COc1nc(Cl)nc(N[C@H]2CO[C@H](CO)[C@H](O)[C@@H]2O)n1` [Compound A330], the Kd under setting [1] was less than 100 µM.
In the case of `N#Cc1nc(N[C@H]2CO[C@H](CO)[C@H](O)[C@@H]2O)c2cccn2n1` [Compound A373, 4-(((3S,4R,5R,6R)-4,5-dihydroxy-6-(hydroxymethyl)tetrahydro-2H-pyran-3-yl)amino)pyrrolo[2,1-f][1,2,4]triazine-2-carbonitrile], the Kd under setting [1] was less than 100 µM.
Regarding `COc1cc(N[C@H]2CO[C@H](CO)[C@H](O)[C@@H]2O)nc(OC)n1` [Compound A363, (2R,3R,4R,5S)-5-((2,6-dimethoxypyrimidin-4-yl)amino)-2-(hydroxymethyl) tetrahydro-2H-pyran-3,4-diol], under setting [1], the Kd is less than 100 µM.
Consider `O=C1CCCN1[C@@H]1CO[C@H](CO)[C@H](O)[C@@H]1O` [Compound A180, 1-((3R,4R,5R,6R)-4,5-dihydroxy-6-(hydroxymethyl)tetrahydro-2H-pyran-3-yl)pyrrolidin-2-one], for which the Kd under setting [1] is less than 100 µM.
Consider `C=CCO[C@H]1O[C@H](CO)[C@H](O)[C@H](O)[C@H]1Nc1nc(Cl)ns1` [Compound A405, (2R,3R,4R,5R,6S)-6-(allyloxy)-5-((3-chloro-1,2,4-thiadiazol-5-yl)amino)-2-(hydroxymethyl)tetrahydro-2H-pyran-3,4-diol], for which the Kd under setting [1] was less than 100 µM.
Consider `NC(=O)[C@@H]1CO[C@H](CO)[C@H](O)[C@@H]1O` [Compound A174, (3R,4R,5R,6R)-4,5-dihydroxy-6-(hydroxymethyl)tetrahydro-2H-pyran-3-carboxamide], for which the Kd under setting [1] was less than 100 µM.
Turning to `CC(=O)N[C@@H]1CO[C@H](COCCOCCOCCOCCNC(=O)CCOCC(COCCC(=O)NCCOCCOCCOCCOC[C@H]2OC[C@@H](NC(C)=O)[C@@H](O)[C@H]2O)(COCCC(=O)NCCOCCOCCOCCOC[C@H]2OC[C@@H](NC(C)=O)[C@@H](O)[C@H]2O)NC(=O)COCCOCCOCCNc2ccc([N+](=O)[O-])cc2[N+](=O)[O-])[C@H](O)[C@@H]1O` [Compound 33, 3,3′-((2-(2-(2-(2-(2-((2,4-dinitrophenyl)amino)ethoxy)ethoxy)ethoxy)acetamido)propane-1,3-diyl)tris(oxy))tris(N-(1-((2R,3R,4R,5R)-5-acetamido-3,4-dihydroxytetrahydro-2H-pyran-2-yl)-2,5,8,11-tetraoxatridecan-13-yl)propanamide)], the dissociation constant Kd under setting [4] is less than 100 µM.
`CO[C@@H]1O[C@H](CO)[C@H](O)[C@H](O)[C@H]1Nc1nc(Cl)cs1` [Compound A108]: the Kd under setting [3] was less than 100 µM.
Take `NC(COCCC(=O)NCCOCCOCCOCCOC[C@H]1OC[C@H](Nc2nccc(C(F)(F)F)n2)[C@@H](O)[C@H]1O)COCCC(=O)NCCOCCOCCOCCOC[C@H]1OC[C@H](Nc2nccc(C(F)(F)F)n2)[C@@H](O)[C@H]1O` [Compound A422, 3,3′-((2-aminopropane-1,3-diyl)bis(oxy))bis(N-(1-((2R,3R,4R,5S)-3,4-dihydroxy-5-((4-(trifluoromethyl)pyrimidin-2-yl)amino)tetrahydro-2H-pyran-2-yl)-2,5,8,11-tetraoxatridecan-13-yl)propanamide)]: under setting [4], the Kd was less than 100 µM.
In the case of `N#Cc1cncc(N[C@H]2CO[C@H](CO)[C@H](O)[C@@H]2O)n1` [Compound A312], the Kd under setting [1] was less than 100 µM.
Regarding `OC[C@H]1OC[C@H](Nc2ccc(Cl)nn2)[C@@H](O)[C@H]1O` [Compound A316], the Kd under setting [2] is greater than 20 µM.
